Results taken from patent publication US5045302A, “Ligands and cationic complexes thereof with technetium-99m” (priority 1988, dated 1991).
Like-named read-outs stand apart in the source and are kept apart here. Each block holds one compound with its values, some of them ahead of it.

Tests used:
[1] = rat, in vivo
[2] = guinea pig, in vivo
[3] = Plasma binding study (PD10 column), human plasma; assay type: in vitro ADME; details: for percent recovery of Tc99m activity: human, plasma; for binding to / interaction with human plasma: in words
Experimental: (§1) 1 ml sample of guinea pig or human plasma or saline (control) were added to 2 ml Eppendorf tubes. To these were then added 100 ul aliquots of the ^99m Tc preparation being studied. Mixing was performed by inverting the tubes several times. A 50 ul sample was then taken for counting and the remainder of the sample (1050 ul) was quantitatively transferred to the top of the PD10 column. The sample was allowed to enter the column matrix and then washed in with 1.5 mls saline. Initially a 2.5 ml aliquot was collected for counting, (dead volume) subsequently 0.5 ml aliquots were collected until a total volume of 16 mls had been used to elute the column. […] Collected fractions were counted in a γ well counter and a graph plotted of percentage recovery was calculated from initial preloading sample and cumulative counts.

[4] = in vivo
[5] = Protein binding, statement in words; assay type: in vitro ADME
[6] = saline
Experimental: as §1

[7] = guinea pig, serum
Experimental: as §1

[8] = Guinea pig biodistribution of Tc-99m complexes; details: 60 min p.i.
[9] = Rat biodistribution of Tc-99m complexes
[10] = Hydrophilicity, statement in words; assay type: physicochemical; details: compared with complex TcL2O2+ (L=P53), as indicated by urinary output
[11] = Heart uptake and urinary output, statement in words; details: species not stated

Structure (SMILES): CCOCC[P+]1(CCOCC)CC[P+](CCOCC)(CCOCC)[Tc-3]12([Cl])([Cl])[P+](CCOCC)(CCOCC)CC[P+]2(CCOCC)CCOCC
blood and liver clearance [1]: good
heart uptake [1]: good heart uptake
wash-out from heart [1]: washes out of the respective hearts
Blood ([1]; 2 min): 5.24 % Injected dose/organ
Heart ([1]; 2 min): 1.51 % Injected dose/organ
Heart/Blood Counts/Gram Ratio ([1]; 2 min): 3.90
Heart/Liver Counts/Gram Ratio ([1]; 2 min): 0.64
Heart/Muscle Counts/Gram Ratio ([1]; 2 min): 4.68
Kidney + Urine ([1]; 2 min): 4.48 % Injected dose/organ
Liver ([1]; 2 min): 28.87 % Injected dose/organ
Liver + GI ([1]; 2 min): 41.13 % Injected dose/organ
Lung ([1]; 2 min): 1.45 % Injected dose/organ
Muscle ([1]; 2 min): 34.92 % Injected dose/organ
Blood ([1]; 60 min): 0.71 % Injected dose/organ
Heart ([1]; 60 min): 0.16 % Injected dose/organ
Heart/Blood Counts/Gram Ratio ([1]; 60 min): 3.09
Heart/Liver Counts/Gram Ratio ([1]; 60 min): 0.46
Heart/Muscle Counts/Gram Ratio ([1]; 60 min): 1.41
Kidney + Urine ([1]; 60 min): 4.95 % Injected dose/organ
Liver ([1]; 60 min): 4.78 % Injected dose/organ
Liver + GI ([1]; 60 min): 61.34 % Injected dose/organ
Lung ([1]; 60 min): 0.47 % Injected dose/organ
Muscle ([1]; 60 min): 11.68 % Injected dose/organ
blood and liver clearance [2]: good
heart uptake [2]: good heart uptake
wash-out from heart [2]: washes out of the respective hearts
Blood ([2]; 2 min): 3.50 % Injected dose/organ
Heart ([2]; 2 min): 1.89 % Injected dose/organ
Heart/Blood Counts/Gram Ratio ([2]; 2 min): 12.72
Heart/Liver Counts/Gram Ratio ([2]; 2 min): 2.13
Heart/Muscle Counts/Gram Ratio ([2]; 2 min): 4.48
Kidney + Urine ([2]; 2 min): 6.98 % Injected dose/organ
Liver ([2]; 2 min): 13.74 % Injected dose/organ
Liver + GI ([2]; 2 min): 18.72 % Injected dose/organ
Lung ([2]; 2 min): 3.11 % Injected dose/organ
Muscle ([2]; 2 min): 61.65 % Injected dose/organ
Blood ([2]; 60 min): 0.58 % Injected dose/organ
Heart ([2]; 60 min): 0.13 % Injected dose/organ
Heart/Blood Counts/Gram Ratio ([2]; 60 min): 5.35
Heart/Liver Counts/Gram Ratio ([2]; 60 min): 0.72
Heart/Muscle Counts/Gram Ratio ([2]; 60 min): 1.13
Kidney + Urine ([2]; 60 min): 3.20 % Injected dose/organ
Liver ([2]; 60 min): 3.16 % Injected dose/organ
Liver + GI ([2]; 60 min): 62.38 % Injected dose/organ
Lung ([2]; 60 min): 0.30 % Injected dose/organ
Muscle ([2]; 60 min): 15.16 % Injected dose/organ
percent recovery of Tc99m activity [3]: 93.8%
binding to / interaction with human plasma [3]: possible slight interaction

Structure (SMILES): CCOCC[P+]1(CCOCC)CC[P+](CCOCC)(CCOCC)[Tc-3]12(=[O])(=[O])[P+](CCOCC)(CCOCC)CC[P+]2(CCOCC)CCOCC [[TcO2 (P53)2]^+]
heart uptake [4]: good heart uptake
protein binding [5]: low protein binding
percent recovery of Tc99m activity [6]: 90.82%
Blood ([1]; 2 min): 2.25 % Injected dose/organ
Brian ([1]; 2 min): 0.03 % Injected dose/organ
Heart ([1]; 2 min): 1.66 % Injected dose/organ
Heart/Muscle Counts/Gram Ratio ([1]; 2 min): 5.94
Kidney + Urine ([1]; 2 min): 13.2 % Injected dose/organ
Liver ([1]; 2 min): 14.1 % Injected dose/organ
Liver + GI ([1]; 2 min): 37.8 % Injected dose/organ
Lung ([1]; 2 min): 1.44 % Injected dose/organ
Muscle ([1]; 2 min): 31.6 % Injected dose/organ
Blood ([1]; 60 min): 0.28 % Injected dose/organ
Brian ([1]; 60 min): 0.02 % Injected dose/organ
Heart ([1]; 60 min): 1.68 % Injected dose/organ
Heart/Blood Counts/Gram Ratio ([1]; 60 min): 86.4
Heart/Liver Counts/Gram Ratio ([1]; 60 min): 14.4
Heart/Lung Counts/Gram Ratio ([1]; 60 min): 4.3
Heart/Muscle Counts/Gram Ratio ([1]; 60 min): 5.74
Kidney + Urine ([1]; 60 min): 9.29 % Injected dose/organ
Liver + GI ([1]; 60 min): 42.5 % Injected dose/organ
Lung ([1]; 60 min): 0.65 % Injected dose/organ
Muscle ([1]; 60 min): 31.6 % Injected dose/organ
percent recovery of Tc99m activity [7]: 90.34%
Blood ([2]; 2 min): 3.11 % Injected dose/organ
Heart ([2]; 2 min): 1.33 % Injected dose/organ
Heart/Blood Counts/Gram Ratio ([2]; 2 min): 10.9
Heart/Liver Counts/Gram Ratio ([2]; 2 min): 1.90
Heart/Lung Counts/Gram Ratio ([2]; 2 min): 1.2
Heart/Muscle Counts/Gram Ratio ([2]; 2 min): 6.12
Kidney + Urine ([2]; 2 min): 16.7 % Injected dose/organ
Liver ([2]; 2 min): 11.6 % Injected dose/organ
Liver + GI ([2]; 2 min): 38.7 % Injected dose/organ
Lung ([2]; 2 min): 1.14 % Injected dose/organ
Muscle ([2]; 2 min): 30.0 % Injected dose/organ
Blood ([2]; 60 min): 0.41 % Injected dose/organ
Heart ([2]; 60 min): 0.99 % Injected dose/organ
Heart/Blood Counts/Gram Ratio ([2]; 60 min): 61.9
Heart/Liver Counts/Gram Ratio ([2]; 60 min): 7.51
Heart/Muscle Counts/Gram Ratio ([2]; 60 min): 4.10
Kidney + Urine ([2]; 60 min): 16.1 % Injected dose/organ
Liver ([2]; 60 min): 2.13 % Injected dose/organ
Liver + GI ([2]; 60 min): 44.6 % Injected dose/organ
Lung ([2]; 60 min): 0.47 % Injected dose/organ
Muscle ([2]; 60 min): 43.4 % Injected dose/organ
Heart/Lung Counts/Gram Ratio [8]: 2.0
Heart/Blood Counts/Gram Ratio ([9]; 2 min p.i.): 10.5
Heart/Liver Counts/Gram Ratio ([9]; 2 min p.i.): 1.52
Heart/Lung Counts/Gram Ratio ([9]; 2 min p.i.): 2.0
Liver ([9]; 60 min p.i.): 1.62 % Injected dose/organ
percent recovery of Tc99m activity [3]: 65.23%
binding to / interaction with human plasma [3]: no significant binding

hydrophilicity [10]: substantially higher hydrophilicity
heart uptake [11]: low heart uptake
urinary output [11]: high urinary output
Blood ([9]; 2 min p.i.): 18.8 % Injected dose/organ
Heart ([9]; 2 min p.i.): 0.44 % Injected dose/organ
Heart/Blood Counts/Gram Ratio ([9]; 2 min p.i.): 0.35
Heart/Liver Counts/Gram Ratio ([9]; 2 min p.i.): 1.71
Liver ([9]; 2 min p.i.): 3.62 % Injected dose/organ
Blood ([9]; 60 min p.i.): 0.77 % Injected dose/organ
Heart ([9]; 60 min p.i.): 0.09 % Injected dose/organ
Heart/Blood Counts/Gram Ratio ([9]; 60 min p.i.): 1.82
Heart/Liver Counts/Gram Ratio ([9]; 60 min p.i.): 0.88
Liver ([9]; 60 min p.i.): 1.35 % Injected dose/organ
Structure (SMILES): COCCCP(CCCOC)CCP(CCCOC)CCCOC [Compound 3]
